Assay results published in patent publication US5023239A, “Sialosyl cholesterol, process for producing the same, and neuropathy remedy comprising the same” (MECT Corporation, priority 1986, dated 1991).

System: Neuroblastoma Cell, Neuro 2a Strain
Experiment: Effect on proliferation / neurite propagation of neuroblastoma cell, Neuro 2a strain
Assay type: cell-based, mouse
Conditions: for activity (in words): 24 hours cultivation; for minimal effective concentration: 48 hours after addition
Procedure: Experiments for confirming the activity of the present compound for promoting propagation of neurites will be explained below.
Effect On Proliferation of Neuroblastoma Cell, Neuro 2a Strain
Neuro 2a was floated on culture medium consisting of 90% of Dulbecco's Modified Eagle's Midium, and 10% of fetal calf serum (FCS), and containing 100 units/ml of penicillin G and 100 micro g/ml of streptomycin sulfate, and then cultivated at 37° C. in a carbon dioxide incubator containing air into which 5% of carbon dioxide was incorporated. The vessel as used was a polystyrene tray having a diameter of 60 mm. 1 to 2×10^4 of the neuroblastoma cells were implanted in each tray and cultivated for 48 hours. The FCS-containing culture was removed from the resultant cell culture. […] When 24 and 48 hours had passed after the addition of these medicines, the number of the living cells increased in the culture, the number of the neurites increased, and the length of the neurites were measured. The experiment was conducted on three trays with respect to each concentration. The resultant data were expressed by average value+standard error (S.E).

<NAcNeu (alpha 2-8) NAcNeu (alpha 2-3)>Gal (beta 1-3) GalNAc (beta 1-4)- NAcNeu-(alpha 2-8) <NAcNeu- (alpha 2-3)>-Gal (beta 1-4) Glc (beta 1-1)-Ceramide [GQlb]
activity (in words): do not provide any activity
Length of neurite ± S.E. (24 hrs, 10 ng/ml): 88.5 ± 5.00 μm/cell
Number of neurite propagated cells (24 hrs, 10 ng/ml): 174
Number of neurites ± S.E. (24 hrs, 10 ng/ml): 1.3 ± 0.05 number/cell
Rate of neurite propagation (%) (24 hrs, 10 ng/ml): 51.8%
Total number of cells (24 hrs, 10 ng/ml): 336
Length of neurite ± S.E. (24 hrs, 100 ng/ml): 86.0 ± 4.72 μm/cell
Number of neurite propagated cells (24 hrs, 100 ng/ml): 159
Number of neurites ± S.E. (24 hrs, 100 ng/ml): 1.3 ± 0.04 number/cell
Rate of neurite propagation (%) (24 hrs, 100 ng/ml): 48.0%
Total number of cells (24 hrs, 100 ng/ml): 331
Length of neurite ± S.E. (24 hrs, 1 μg/ml): 97.6 ± 4.95 μm/cell
Number of neurite propagated cells (24 hrs, 1 μg/ml): 157
Number of neurites ± S.E. (24 hrs, 1 μg/ml): 1.4 ± 0.05 number/cell
Rate of neurite propagation (%) (24 hrs, 1 μg/ml): 51.0%
Total number of cells (24 hrs, 1 μg/ml): 308
Length of neurite ± S.E. (24 hrs, 10 μg/ml): 114.9 ± 5.98 μm/cell
Number of neurite propagated cells (24 hrs, 10 μg/ml): 205
Number of neurites ± S.E. (24 hrs, 10 μg/ml): 1.4 ± 0.06 number/cell
Rate of neurite propagation (%) (24 hrs, 10 μg/ml): 63.9%
Total number of cells (24 hrs, 10 μg/ml): 321
minimal effective concentration: 10 micro g/ml
Length of neurite ± S.E. (48 hrs, 10 ng/ml): 100.4 ± 5.76 μm/cell
Number of neurite propagated cells (48 hrs, 10 ng/ml): 158
Number of neurites ± S.E. (48 hrs, 10 ng/ml): 1.5 ± 0.06 number/cell
Rate of neurite propagation (%) (48 hrs, 10 ng/ml): 42.6%
Total number of cells (48 hrs, 10 ng/ml): 371
Length of neurite ± S.E. (48 hrs, 100 ng/ml): 90.4 ± 6.06 μm/cell
Number of neurite propagated cells (48 hrs, 100 ng/ml): 153
Number of neurites ± S.E. (48 hrs, 100 ng/ml): 1.2 ± 0.04 number/cell
Rate of neurite propagation (%) (48 hrs, 100 ng/ml): 44.1%
Total number of cells (48 hrs, 100 ng/ml): 347
Length of neurite ± S.E. (48 hrs, 1 μg/ml): 106.5 ± 6.40 μm/cell
Number of neurite propagated cells (48 hrs, 1 μg/ml): 182
Number of neurites ± S.E. (48 hrs, 1 μg/ml): 1.3 ± 0.04 number/cell
Rate of neurite propagation (%) (48 hrs, 1 μg/ml): 47.4%
Total number of cells (48 hrs, 1 μg/ml): 384
Length of neurite ± S.E. (48 hrs, 10 μg/ml): 122.5 ± 6.99 μm/cell
Number of neurite propagated cells (48 hrs, 10 μg/ml): 214
Number of neurites ± S.E. (48 hrs, 10 μg/ml): 1.3 ± 0.04 number/cell
Rate of neurite propagation (%) (48 hrs, 10 μg/ml): 61.8%
Total number of cells (48 hrs, 10 μg/ml): 346

Gal (beta 1-3) GalNac (beta 1-4 ) <NAcNeu-(alpha2-3)>Gal (beta 1-4) Glc (beta 1-1)-Ceramide [GM1]
activity (in words): do not provide any activity
Length of neurite ± S.E. (24 hrs, 10 ng/ml): 94.9 ± 6.64 μm/cell
Number of neurite propagated cells (24 hrs, 10 ng/ml): 145
Number of neurites ± S.E. (24 hrs, 10 ng/ml): 1.4 ± 0.05 number/cell
Rate of neurite propagation (%) (24 hrs, 10 ng/ml): 43.4%
Total number of cells (24 hrs, 10 ng/ml): 334
Length of neurite ± S.E. (24 hrs, 100 ng/ml): 101.1 ± 5.09 μm/cell
Number of neurite propagated cells (24 hrs, 100 ng/ml): 142
Number of neurites ± S.E. (24 hrs, 100 ng/ml): 1.4 ± 0.06 number/cell
Rate of neurite propagation (%) (24 hrs, 100 ng/ml): 47.8%
Total number of cells (24 hrs, 100 ng/ml): 297
Length of neurite ± S.E. (24 hrs, 1 μg/ml): 109.7 ± 6.44 μm/cell
Number of neurite propagated cells (24 hrs, 1 μg/ml): 140
Number of neurites ± S.E. (24 hrs, 1 μg/ml): 1.4 ± 0.06 number/cell
Rate of neurite propagation (%) (24 hrs, 1 μg/ml): 42.2%
Total number of cells (24 hrs, 1 μg/ml): 332
Length of neurite ± S.E. (24 hrs, 10 μg/ml): 89.3 ± 4.77 μm/cell
Number of neurite propagated cells (24 hrs, 10 μg/ml): 149
Number of neurites ± S.E. (24 hrs, 10 μg/ml): 1.4 ± 0.05 number/cell
Rate of neurite propagation (%) (24 hrs, 10 μg/ml): 45.8%
Total number of cells (24 hrs, 10 μg/ml): 325
Length of neurite ± S.E. (24 hrs, 100 μg/ml): 90.5 ± 3.88 μm/cell
Number of neurite propagated cells (24 hrs, 100 μg/ml): 172
Number of neurites ± S.E. (24 hrs, 100 μg/ml): 1.8 ± 0.06 number/cell
Rate of neurite propagation (%) (24 hrs, 100 μg/ml): 55.5%
Total number of cells (24 hrs, 100 μg/ml): 310
minimal effective concentration: 10 micro g/ml
Length of neurite ± S.E. (48 hrs, 10 ng/ml): 93.7 ± 5.07 μm/cell
Number of neurite propagated cells (48 hrs, 10 ng/ml): 194
Number of neurites ± S.E. (48 hrs, 10 ng/ml): 1.4 ± 0.05 number/cell
Rate of neurite propagation (%) (48 hrs, 10 ng/ml): 58.3%
Total number of cells (48 hrs, 10 ng/ml): 333
Length of neurite ± S.E. (48 hrs, 100 ng/ml): 108.8 ± 5.97 μm/cell
Number of neurite propagated cells (48 hrs, 100 ng/ml): 156
Number of neurites ± S.E. (48 hrs, 100 ng/ml): 1.4 ± 0.06 number/cell
Rate of neurite propagation (%) (48 hrs, 100 ng/ml): 44.7%
Total number of cells (48 hrs, 100 ng/ml): 349
Length of neurite ± S.E. (48 hrs, 1 μg/ml): 109.2 ± 6.09 μm/cell
Number of neurite propagated cells (48 hrs, 1 μg/ml): 211
Number of neurites ± S.E. (48 hrs, 1 μg/ml): 1.3 ± 0.04 number/cell
Rate of neurite propagation (%) (48 hrs, 1 μg/ml): 59.9%
Total number of cells (48 hrs, 1 μg/ml): 352
Length of neurite ± S.E. (48 hrs, 10 μg/ml): 113.8 ± 5.49 μm/cell
Number of neurite propagated cells (48 hrs, 10 μg/ml): 205
Number of neurites ± S.E. (48 hrs, 10 μg/ml): 1.3 ± 0.04 number/cell
Rate of neurite propagation (%) (48 hrs, 10 μg/ml): 62.1%
Total number of cells (48 hrs, 10 μg/ml): 330
Length of neurite ± S.E. (48 hrs, 100 μg/ml): 98.9 ± 5.22 μm/cell
Number of neurite propagated cells (48 hrs, 100 μg/ml): 193
Number of neurites ± S.E. (48 hrs, 100 μg/ml): 1.5 number/cell
Rate of neurite propagation (%) (48 hrs, 100 μg/ml): 60.9%
Total number of cells (48 hrs, 100 μg/ml): 317
